Test results: US10441588B2, “Methods and compositions for treating bacterial infection” (Curators of the University of Missouri, priority 2012, dated 2019)

Key:
S. aureus biofilm = S. aureus biofilm inhibition, optical density, test/control; format: cell-based, Staphylococcus aureus; conditions: for activity at 100 µM / activity at 10 µM / activity at 5 µM / activity at 50 µM: Staphylococcus aureus; for activity at 5 µM: read-out: S. aureus Biofilm Inhibition 5 μM vs. (−) Control; for activity at 50 µM: read-out: S. aureus Biofilm Inhibition 50 μM vs. (−) Control
S. aureus = S. aureus growth inhibition, optical density, test/control; format: cell-based, Staphylococcus aureus; conditions: growth of bacteria test/control by optical density; for activity at 100 µM: Staphylococcus aureus
S. epidermis biofilm = S. epidermis biofilm inhibition, optical density, test/control; conditions: for S. epidermis Biofilm inhibition 10 μM vs. (−) Control / activity at 100 µM / activity at 5 µM / activity at 50 µM: growth of biofilm test/control by optical density; for activity at 100 µM / activity at 5 µM / activity at 50 µM: Staphylococcus epidermidis; for activity at 100 µM: read-out: S. epidermis Biofilm inhibition 100 μM vs. (−) Control, 100 μM; for activity at 5 µM: read-out: S. epidermis Biofilm inhibition 5 μM vs. (−) Control, 5 μM; for activity at 50 µM: read-out: S. epidermis Biofilm inhibition 50 μM vs. (−) Control, 50 μM
S. epidermis = S. epidermis growth inhibition, optical density, test/control; format: cell-based, Staphylococcus epidermidis; conditions: for activity at 100 µM: Staphylococcus epidermidis, growth of bacteria test/control by optical density
E. coli flagellin (fliC) = assay: microbe, parasite or virus in culture; format: cell-based; conditions: Escherichia coli, 6 h; for activity at 5 µM: read-out: E. coli flagellin production, Relative Level vs. Control, 5 μM; for activity at 25 µM: read-out: E. coli flagellin production, Relative Level vs. Control, 25 μM
P. aeruginosa = P. aeruginosa wound infection in DIO mice; format: in vivo; conditions: female DIO mice, 10^8 CFU; vancomycin treatment alone
[1] = tested on: S. aureus RN6390 strain biofilm; assay: microbe, parasite or virus in culture; format: cell-based
S. aurues strain RN6390 = assay: S. aureus RN6390 bacterial growth; format: cell-based; conditions: at 20 μM
Description: (§1) These compounds were then tested on staphylococcus biofilm formation. […] The two compounds (CCG-203592 and CCG-205363) were tested on S. aurues strain RN6390, which is reported to be more prone to biofilm formation than Newman strain.

[2] = tested on: S. aureus virulence factor genes; assay: S. aureus virulence factor gene expression, real time RT-PCR; format: cell-based; conditions: RN6390, 50 μM; ML, LL and S growth phase
S. aureus Newman biofilm = S. aureus Newman biofilm formation in microtiter plates; format: cell-based
Description: as §1

[3] = 100 μM, growth of biofilm test/control by optical density
[4] = growth of biofilm test/control by optical density

COCCSc1nc2c(c(=O)n1CCCO)C(C)(C)Cc1ccccc1-2 [CCG-205390, 3-(3-Hydroxypropyl)-2-((2-methoxyethyl)thio)-5,5-dimethyl-5,6-dihydrobenzo[h]quinazolin-4(3H)-one]
activity at 100 µM (S. aureus biofilm; [3]): 52.5% | activity at 100 µM (S. aureus): 89.1% | S. epidermis Biofilm inhibition 10 μM vs. (−) Control (S. epidermis biofilm): 0.921

COCCSc1nc(OCCCO)c2c(n1)-c1ccccc1CC2(C)C [CCG-205384, 3-((2-((2-Methoxyethyl)thio)-5,5-dimethyl-5,6-dihydrobenzo[h]quinazolin-4-yl)oxy)propan-1-ol]
activity at 100 µM (S. epidermis): 100% | activity at 100 µM (S. aureus biofilm; [3]): 16% | activity at 100 µM (S. aureus): 93.5% | S. epidermis Biofilm inhibition 10 μM vs. (−) Control (S. epidermis biofilm): 1.095

C=CCn1c(SCc2ccc(OC)cc2)nc2c(c1=O)C1(CCCCC1)Cc1ccccc1-2 [CCG-102483]
activity at 100 µM (S. epidermis): 129% | activity at 100 µM (S. epidermis biofilm): 78.6%

COc1ccc2c(c1)CC(C)(C)c1c-2nc(OCC(F)(F)F)n(C)c1=O [IVG-00614-00A01]
activity at 5 µM (E. coli flagellin (fliC)): 24.4% | activity at 25 µM (E. coli flagellin (fliC)): 26.2%

CCNc1nc2c(c(=O)n1C)C(C)(C)Cc1cc(OC)ccc1-2 [IVG-00613-00A01]
activity at 5 µM (E. coli flagellin (fliC)): 34.2% | activity at 25 µM (E. coli flagellin (fliC)): 13.9%

CN[C@H](CC(C)C)C(=O)N[C@H]1C(=O)N[C@@H](CC(N)=O)C(=O)N[C@H]2C(=O)N[C@H]3C(=O)N[C@H](C(=O)N[C@H](C(=O)O)c4cc(O)cc(O)c4-c4cc3ccc4O)[C@H](O)c3ccc(c(Cl)c3)Oc3cc2cc(c3O[C@@H]2O[C@H](CO)[C@@H](O)[C@H](O)[C@H]2O[C@H]2C[C@](C)(N)[C@H](O)[C@H](C)O2)Oc2ccc(cc2Cl)[C@H]1O [vancomycin, reference compound]
survival (P. aeruginosa): 40%

C=CCSc1nc2c(c(=O)n1CC=C)C(C)(C)Cc1cc(OC)ccc1-2 [CCG-205363]
activity at 10 µM (S. aureus biofilm; [4]): 63.1% | activity at 100 µM (S. aureus biofilm; [3]): 44% | activity at 100 µM (S. aureus): 95% | IC50, inhibition of S. aureus biofilm formation [1]: low μM range | IC50 ([1]; Staphylococcus aureus, read-out: IC50, inhibition of RN6390 biofilm formation): 6.96 ± 0.76 µM | bacteria growth (S. aurues strain RN6390): without inhibiting bacteria growth | S. aureus virulence factor gene expression [2]: inhibited gene expression | S. aureus Newman biofilm formation (S. aureus Newman biofilm): consistent inhibition

C=CCn1c(SCCOC)nc2c(c1=O)C1(CCN(C(=O)CCCC)CC1)Cc1ccccc1-2 [CCG-206227, 3-Allyl-2-((2-methoxyethyl)thio)-1′-pentanoyl-3H-spiro[benzo[h]quinazoline-5,4′-piperidin]-4(6H)-one]
activity at 100 µM (S. epidermis): 141% | biofilm formation by S. aureus (S. aureus biofilm): inhibit biofilm formation | activity at 10 µM (S. aureus biofilm; [4]): 52.8% | activity at 100 µM (S. aureus biofilm; [3]): 27% | biofilm formation by S. epidermis (S. epidermis biofilm): inhibit biofilm formation | S. epidermis Biofilm inhibition 10 μM vs. (−) Control (S. epidermis biofilm): 0.943

C=CCn1c(SCC)nc2c(c1=O)C(C)(C)Cc1cc(OCCN(CC)CC)ccc1-2 [CCG-205396, 3-Allyl-8-(2-(diethylamino)ethoxy)-2-(ethylthio)-5,5-dimethyl-5,6-dihydrobenzo[h]-quinazolin-4(3H)-one]
activity at 100 µM (S. epidermis): 13% | activity at 10 µM (S. aureus biofilm; [4]): 68.4% | activity at 100 µM (S. aureus biofilm; [3]): 6.2% | activity at 100 µM (S. epidermis biofilm): 3.7%

C=CCn1c(NCC)nc2c(c1=O)C(C)(C)Cc1ccccc1-2 [CCG-203804]
activity at 100 µM (S. epidermis): 103% | activity at 100 µM (S. aureus biofilm; [3]): 10.3% | activity at 100 µM (S. aureus): 66.2% | S. epidermis Biofilm inhibition 10 μM vs. (−) Control (S. epidermis biofilm): 0.858

COc1ccc2c(c1)CC(C)(C)c1c-2nc(N(C)CCO)n(C)c1=O [IVG-00612-00A01]
activity at 5 µM (E. coli flagellin (fliC)): 18.1% | activity at 25 µM (E. coli flagellin (fliC)): 12.9%

COc1ccc2c(c1)CC(C)(C)c1c-2nc(SCC(F)(F)F)[nH]c1=O [IVG-00601-00A01]
activity at 5 µM (E. coli flagellin (fliC)): 85.3% | activity at 25 µM (E. coli flagellin (fliC)): 3.96%

COc1ccc2c(c1)CC(C)(C)c1c(OC)nc(SCC(F)(F)F)nc1-2 [IVG-00607-00A01]
activity at 5 µM (E. coli flagellin (fliC)): 63.4% | activity at 25 µM (E. coli flagellin (fliC)): 27.5%

C=CCn1c(SCCOC)nc2c(c1=O)C1(CCN(C(=O)NC)CC1)Cc1cc(OC)ccc1-2 [CCG-211970, 3-allyl-8-methoxy-2-((2-methoxyethyl)thio)-N-methyl-4-oxo-4,6-dihydro-3H-spiro[benzo[h]quinazoline-5,4′-piperidine]-1′-carboxamide]
activity at 5 µM (S. aureus biofilm; [4]): 69% | activity at 50 µM (S. aureus biofilm; [4]): 58% | activity at 5 µM (S. epidermis biofilm): 79% | activity at 50 µM (S. epidermis biofilm): 67%

C=CCn1c(SCCOC)nc2c(c1=O)C(C)(C)Cc1cc(C(=O)NCCO)ccc1-2 [CCG-206239, 3-allyl-N-(2-hydroxyethyl)-2-((2-methoxyethyl)thio)-5,5-dimethyl-4-oxo-1,2,3,4,5,6-hexahydrobenzo[h]quinazoline-8-carboxamide]
activity at 100 µM (S. epidermis): 111% | activity at 100 µM (S. aureus biofilm; [3]): 32.7%

COc1ccc2c(c1)CC(C)(C)c1c-2nc(SCC(F)(F)F)n(C)c1=O [IV501]
activity at 5 µM (E. coli flagellin (fliC)): 36.2% | activity at 25 µM (E. coli flagellin (fliC)): 47.5%

CCSc1nc2c(c(=O)n1C)C(C)(C)Cc1ccc(OC)cc1-2 [CCG-206353]
activity at 10 µM (S. aureus biofilm; [4]): 49.4% | activity at 100 µM (S. aureus biofilm; [3]): 32.3% | activity at 100 µM (S. aureus): 92.1% | S. epidermis Biofilm inhibition 10 μM vs. (−) Control (S. epidermis biofilm): 1.053 | activity at 100 µM (S. epidermis biofilm): 34.7%

COc1ccc2c(c1)CC1(CCNCC1)c1c(OCC#N)nc(SCC#N)nc1-2 [CCG-212015, 2-((4-(cyanomethoxy)-8-methoxy-6H-spiro[benzo[h]quinazoline-5,4′-piperidin]-2-yl)thio)acetonitrile]
activity at 5 µM (S. aureus biofilm; [4]): 94% | activity at 50 µM (S. aureus biofilm; [4]): 33% | activity at 5 µM (S. epidermis biofilm): 93% | activity at 50 µM (S. epidermis biofilm): 48%

C=CCn1c(SCCOC)nc2c(c1=O)C1(CCNCC1)Cc1ccccc1-2 [CCG-205447, 3-Allyl-2-((2-methoxyethyl)thio)-3H-spiro[benzo[h]quinazoline-5,4′-piperidin]-4(6H)-one]
activity at 100 µM (S. epidermis): 104% | activity at 10 µM (S. aureus biofilm; [4]): 110% | activity at 100 µM (S. aureus): 90% | S. epidermis Biofilm inhibition 10 μM vs. (−) Control (S. epidermis biofilm): 0.936

C=CCn1c(SCCOC)nc2c(c1=O)C1(CCN(Cc3ccccc3)CC1)Cc1cc(OC)ccc1-2 [CCG-208982, 3-allyl-1′-benzyl-8-methoxy-2-((2-methoxyethyl)thio)-3H-spiro[benzo[h]quinazoline-5,4′-piperidin]-4(6H)-one]
activity at 5 µM (S. aureus biofilm; [4]): 76.5% | activity at 50 µM (S. aureus biofilm; [4]): 31.9% | activity at 5 µM (S. epidermis biofilm): 98.7% | activity at 50 µM (S. epidermis biofilm): 66%

COCCOCCOc1nc(SCCOC)nc2c1C(C)(C)Cc1ccccc1-2 [CCG-204033, 4-(2-(2-Methoxyethoxy)ethoxy)-2-((2-methoxyethyl)thio)-5,5-dimethyl-5,6-dihydrobenzo[h]-quinazoline]
activity at 100 µM (S. epidermis): 103% | activity at 100 µM (S. aureus biofilm; [3]): 59.9% | activity at 100 µM (S. aureus): 83.8% | activity at 100 µM (S. epidermis biofilm): 75.6%

C=CCn1c(NCC)nc2c(c1=O)C1(CCCCC1)Cc1ccccc1-2 [CCG-203043]
S. epidermidis bacterial growth (S. epidermis; RP62A strain): without inhibition of bacterial growth | activity at 100 µM (S. aureus biofilm; [3]): 43.5% | activity at 100 µM (S. aureus): 70% | S. epidermis Biofilm inhibition 10 μM vs. (−) Control (S. epidermis biofilm): 0.169 | S. epidermidis biofilm formation (S. epidermis biofilm; RP62A strain, microtiter plate): strong inhibition | activity at 100 µM (S. epidermis biofilm): 45%

C=CCn1c(SCC)nc2c(c1=O)C(C)(C)Cc1cc(OCCN3CCOCC3)ccc1-2 [CCG-205427]
activity at 100 µM (S. epidermis): 98% | activity at 10 µM (S. aureus biofilm; [4]): 73.4% | activity at 100 µM (S. aureus): 92.8% | activity at 100 µM (S. epidermis biofilm): 76.6%

C=CCn1c(SCCOC)nc2c(c1=O)C1(CCN(C(=O)OC(C)(C)C)C1)Cc1ccccc1-2 (stereo not drawn) [CCG-208860, tert-butyl 3-allyl-2-((2-methoxyethyl)thio)-4-oxo-4,6-dihydro-3H-spiro[benzo[h]quinazoline-5,3′-pyrrolidine]-1′-carboxylate]
activity at 5 µM (S. aureus biofilm; [4]): 70.4% | activity at 50 µM (S. aureus biofilm; [4]): 46.4% | activity at 5 µM (S. epidermis biofilm): 85% | activity at 50 µM (S. epidermis biofilm): 79.8%

COc1ccc2c(c1)CC(C)(C)c1c-2nc(NCC(F)(F)F)n(C)c1=O [IVG-00611-00A01]
activity at 5 µM (E. coli flagellin (fliC)): 19.6% | activity at 25 µM (E. coli flagellin (fliC)): 13.6%

COc1ccc2c(c1)CC1(CCNCC1)c1c(OC)nc(SCC#N)nc1-2 [CCG-212014, 2((4,8-dimethoxy-6H-spiro[benzo[h]quinazoline-5,4′-piperidin]-2-yl)thio)acetonitrile]
activity at 5 µM (S. aureus biofilm; [4]): 77% | activity at 50 µM (S. aureus biofilm; [4]): 52% | activity at 5 µM (S. epidermis biofilm): 105% | activity at 50 µM (S. epidermis biofilm): 63%

COc1ccc2c(c1)CC(C)(C)c1c-2nc(NCCO)n(C)c1=O [IVG-00610-00A01]
activity at 5 µM (E. coli flagellin (fliC)): 31.6% | activity at 25 µM (E. coli flagellin (fliC)): 8.83%

COc1ccc2c(c1)CC(C)(C)c1c-2nc(S)n(C)c1=O [IVG-00608-00A01]
activity at 5 µM (E. coli flagellin (fliC)): 82.8% | activity at 25 µM (E. coli flagellin (fliC)): 48.9%

COCCSc1nc(OCC2OCCO2)c2c(n1)-c1ccccc1CC2(C)C [CCG-204030, 4-((1,3-dioxolan-2-yl)methoxy)-2-((2-methoxyethyl)thio)-5,5-dimethyl-5,6-dihydrobenzo[h]-quinazoline]
activity at 100 µM (S. epidermis): 111% | S. aureus Biofilm Inhibition 100 μM vs. (−) Control (S. aureus biofilm; [3]): 0.589 | Growth Inhibition 100 μM vs. (−) Control (S. aureus): 0.919 | activity at 100 µM (S. epidermis biofilm): 73.9%
